According to patent US10995091B2 (Proximagen, LLC, priority 2010, dated 2021):

Molecular target: T1, Human CXCR4 transfected HEK293 cells (Homo sapiens, UniProt P61073)
T1 construct: expressed in transfected cells; host or cells: HEK293
Assay: CXCR4 functional calcium assay (calcium flux FLIPR, antagonism of SDF1 response)
Assay type: cell-based
Settings: CXCR4 functional activity, antagonism of SDF1 (EC50 concentration), read-out: CXCR4 fKi
In short: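 HEK293 cells stably transfected with human CXCR4 were loaded with 2 μM Fluo-4 AM in HBSS containing 2.5 mM probenecid, 0.1% BSA and 10 mM HEPES at pH 7.4 and 37° C. Compound was added first, then SDF1 at its EC50 concentration, and intracellular calcium fluorescence was followed on a FLIPR. Antagonist dose-response curves were fitted.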

T1 sequence (P61073 whole entry): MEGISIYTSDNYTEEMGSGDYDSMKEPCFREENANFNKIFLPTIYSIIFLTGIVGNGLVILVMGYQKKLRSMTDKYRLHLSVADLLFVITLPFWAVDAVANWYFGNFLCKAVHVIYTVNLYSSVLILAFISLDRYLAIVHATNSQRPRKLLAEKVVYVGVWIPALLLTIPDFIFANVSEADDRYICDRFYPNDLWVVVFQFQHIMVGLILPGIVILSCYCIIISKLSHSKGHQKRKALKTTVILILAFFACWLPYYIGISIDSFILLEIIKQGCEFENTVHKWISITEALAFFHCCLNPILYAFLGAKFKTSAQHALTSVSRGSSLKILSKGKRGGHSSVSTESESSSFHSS

Structure (SMILES)	Ki
CC(C)N1CCC(N2CCCN(c3cccc(-c4nc5cnccc5[nH]4)n3)CC2)CC1 [Example 106, 1-(6-{3H-Imidazo[4,5-c]pyridin-2-yl}pyridin-2-yl)-4-[1-(propan-2-yl)piperidin-4-yl]-1,4-diazepane]	< 20 nM
Cc1cnc(-c2cccc(N3CCCN(C4CCN(C(C)C)CC4)CC3)n2)[nH]1 [Example 107, 1-[6-(4-Methyl-1H-imidazol-2-yl)pyridine-2-yl]-4-[1-(propan-2-yl)piperidin-4-yl]-1,4-diazepane]	20 to 100 nM
CCc1cnc(-c2cccc(N3CCCN(C4CCN(C(C)C)CC4)CC3)n2)[nH]1 [Example 108, 1-[6-(4-Ethyl-1H-imidazol-2-yl)pyridine-2-yl]-4-[1-(propan-2-yl)piperidin-4-yl]-1,4-diazepane]	< 20 nM
CCCc1cnc(-c2cccc(N3CCCN(C4CCN(C(C)C)CC4)CC3)n2)[nH]1 [Example 109, 1-[1-(Propan-2-yl)piperidin-4-yl]-4-[6-(4-propyl-1H-imidazol-2-yl)pyridine-2-yl]-1,4-diazepane]	20 to 100 nM
CC(C)c1cnc(-c2cccc(N3CCCN(C4CCN(C(C)C)CC4)CC3)n2)[nH]1 [Example 110, 1-{6-[4-(Propan-2-yl)-1H-imidazol-2-yl]pyridine-2-yl}-4-[1-(propan-2-yl)piperidin-4-yl]-1,4-diazepane]	20 to 100 nM
CC(C)N1CCC(N2CCCN(c3cccc(-c4ncc(C(F)(F)F)[nH]4)n3)CC2)CC1 [Example 112, 1-[1-(Propan-2-yl)piperidin-4-yl]-4-{6-[4-(trifluoromethyl)-1H-imidazol-2-yl]pyridine-2-yl}-1,4-diazepane]	500 to 1000 nM
CC(C)N1CCC(N2CCCN(c3cccc(-c4ncc(C(C)(C)C)[nH]4)n3)CC2)CC1 [Example 113, 1-[6-(4-tert-Butyl-1H-imidazol-2-yl)pyridine-2-yl]-4-[1-(propan-2-yl)piperidin-4-yl]-1,4-diazepane]	100 to 500 nM
CCc1cnc(-c2cccc(N3CCCN(C4CCN([C@@H](C)C(F)(F)F)CC4)CC3)n2)[nH]1 [Example 115, 1-[6-(4-Ethyl-1H-imidazol-2-yl)pyridine-2-yl]-4-{1-[(2S)-1,1,1-trifluoropropan-2-yl]piperidin-4-yl}-1,4-diazepane]	100 to 500 nM
CCc1cnc(-c2cccc(N3CCCN(C4CCN([C@H](C)CC)CC4)CC3)n2)[nH]1 [Example 116, 1-{1-[(2R)-Butan-2-yl]piperidin-4-yl}-4-[6-(4-ethyl-1H-imidazol-2-yl)pyridine-2-yl]-1,4-diazepane]	< 20 nM
CC(C)(C)c1cnc(-c2cccc(N3CCCN(C4CCN(C(C)(C)C)CC4)CC3)n2)[nH]1 [Example 117, 1-[6-(4-tert-Butyl-1H-imidazol-2-yl)pyridine-2-yl]-4-(1-tert-butylpiperidin-4-yl)-1,4-diazepane]	100 to 500 nM
Cc1nc(-c2cccc(N3CCCN(C4CCN(C(C)C)CC4)CC3)n2)[nH]c1C [Example 118, 1-[6-(4,5-Dimethyl-1H-imidazol-2-yl)pyridine-2-yl]-4-[1-(propan-2-yl)piperidin-4-yl]-1,4-diazepane]	20 to 100 nM
CCc1[nH]c(-c2cccc(N3CCCN(C4CCN(C(C)C)CC4)CC3)n2)nc1C [Example 119, 1-[6-(5-Ethyl-4-methyl-1H-imidazol-2-yl)pyridine-2-yl]-4-[1-(propan-2-yl)piperidin-4-yl]-1,4-diazepane]	< 20 nM
CCCc1[nH]c(-c2cccc(N3CCCN(C4CCN(C(C)C)CC4)CC3)n2)nc1C [Example 123, 1-[6-(5-Methyl-4-propyl-1H-imidazol-2-yl)pyridine-2-yl]-4-[1-(propan-2-yl)piperidin-4-yl]-1,4-diazepane]	< 20 nM
CCc1cn(C)c(-c2cccc(N3CCCN(C4CCN(C(C)C)CC4)CC3)n2)n1 [Example 124, 1-[6-(4-Ethyl-1-methyl-1H-imidazol-2-yl)pyridine-2-yl]-4-[1-(propan-2-yl)piperidin-4-yl]-1,4-diazepane]	20 to 100 nM
c1ccc2c(c1)CCC2N1CCC(N2CCCN(c3nccs3)CC2)CC1 (stereo not drawn) [Example 126, 1-[1-(2,3-Dihydro-1H-inden-1-yl)piperidin-4-yl]-4-(1,3-thiazol-2-yl)-1,4-diazepane]	500 to 1000 nM

The remaining lines, values ahead:

Ki	Structure (SMILES)
500 to 1000 nM	COc1ccc2[nH]c(-c3cccc(N4CCCN(C5CCN(C(C)C)CC5)CC4)n3)cc2c1 [Example 105, 5-Methoxy-2-(6-{4-[1-(propan-2-yl)piperidin-4-yl]-1,4-diazepan-1-yl}pyridine-2-yl)-1H-indole]
< 20 nM	CC(C)N1CCC(N2CCCN(c3cccc(-c4ncc(C5CC5)[nH]4)n3)CC2)CC1 [Example 111, 1-[6-(4-Cyclopropyl-1H-imidazol-2-yl)pyridine-2-yl]-4-[1-(propan-2-yl)piperidin-4-yl]-1,4-diazepane]
100 to 500 nM	CC(C)N1CCC(N2CCCN(c3cccc(-c4ncc(-c5ccccc5)[nH]4)n3)CC2)CC1 [Example 114, 1-[6-(4-Phenyl-1H-imidazol-2-yl)pyridine-2-yl]-4-[1-(propan-2-yl)piperidin-4-yl]-1,4-diazepane]
20 to 100 nM	CCc1nc(-c2cccc(N3CCCN(C4CCN(C(C)C)CC4)CC3)n2)[nH]c1CC [Example 120, 1-[6-(4,5-Diethyl-1H-imidazol-2-yl)pyridine-2-yl]-4-[1-(propan-2-yl)piperidin-4-yl]-1,4-diazepane]
< 20 nM	Cc1nc(-c2cccc(N3CCCN(C4CCN(C(C)C)CC4)CC3)n2)[nH]c1C1CC1 [Example 121, 1-[6-(4-Cyclopropyl-5-methyl-1H-imidazol-2-yl)pyridine-2-yl]-4-[1-(propan-2-yl)piperidin-4-yl]-1,4-diazepane]
< 20 nM	CCc1nc(-c2cccc(N3CCCN(C4CCN(C(C)C)CC4)CC3)n2)[nH]c1C1CC1 [Example 122, 1-[6-(4-Cyclopropyl-5-ethyl-1H-imidazol-2-yl)pyridine-2-yl]-4-[1-(propan-2-yl)piperidin-4-yl]-1,4-diazepane]
100 to 500 nM	Cc1ccc(N2CCCN(C3CCN(C(C)C)CC3)CC2)nc1C(=O)NCC1CC1 [Example 125, N-(Cyclopropylmethyl)-3-methyl-6-{4-[1-(propan-2-yl)piperidin-4-yl]-1,4-diazepan-1-yl}pyridine-2-carboxamide]
20 to 100 nM	COCC(C)N1CCC(N2CCCN(c3cccc(C(=O)NCC4CC4)n3)CC2)CC1 (stereo not drawn) [Example 127, N-(Cyclopropylmethyl)-6-{4-[1-(1-methoxypropan-2-yl)piperidin-4-yl]-1,4-diazepan-1-yl}pyridine-2-carboxamide]
100 to 500 nM	O=C(NCC1CC1)c1cccc(N2CCCN(C3CCN(C4CCOC4)CC3)CC2)n1 (stereo not drawn) [Example 128, N-(Cyclopropylmethyl)-6-{4-[1-(oxolan-3-yl)piperidin-4-yl]-1,4-diazepan-1-yl}pyridine-2-carboxamide]
500 to 1000 nM	O=C(NCC1CC1)c1cccc(N2CCCN(C3CCN(Cc4ccccc4)CC3)CC2)n1 [Example 129, 6-[4-(1-Benzylpiperidin-4-yl)-1,4-diazepan-1-yl]-N-(cyclopropylmethyl)pyridine-2-carboxamide]
100 to 500 nM	O=C(NCC1CC1)c1cccc(N2CCCN(C3CCN(Cc4ccc(F)cc4)CC3)CC2)n1 [Example 130, N-(Cyclopropylmethyl)-6-(4-{1-[(4-fluorophenyl)methyl]piperidin-4-yl}-1,4-diazepan-1-yl)pyridine-2-carboxamide]
100 to 500 nM	Cc1ccccc1CN1CCC(N2CCCN(c3cccc(C(=O)NCC4CC4)n3)CC2)CC1 [Example 131, N-(Cyclopropylmethyl)-6-(4-{1-[(2-methylphenyl)methyl]piperidin-4-yl}-1,4-diazepan-1-yl)pyridine-2-carboxamide]
20 to 100 nM	O=C(NCC1CC1)c1cccc(N2CCCN(C3CCN(Cc4ccccc4Cl)CC3)CC2)n1 [Example 132, 6-(4-{1-[(2-Chlorophenyl)methyl]piperidin-4-yl}-1,4-diazepan-1-yl)-N-(cyclopropylmethyl)pyridine-2-carboxamide]
20 to 100 nM	COc1ccccc1CN1CCC(N2CCCN(c3cccc(C(=O)NCC4CC4)n3)CC2)CC1 [Example 133, N-(Cyclopropylmethyl)-6-(4-{1-[(2-methoxyphenyl)methyl]piperidin-4-yl}-1,4-diazepan-1-yl)pyridine-2-carboxamide]
100 to 500 nM	O=C(NCC1CC1)c1cccc(N2CCCN(C3CCN(Cc4cccc(Cl)c4)CC3)CC2)n1 [Example 134, 6-(4-{1-[(3-Chlorophenyl)methyl]piperidin-4-yl}-1,4-diazepan-1-yl)-N-(cyclopropylmethyl)pyridine-2-carboxamide]
< 20 nM	O=C(NCC1CC1)c1cccc(N2CCCN(C3CCN(Cc4ccc(F)cc4Cl)CC3)CC2)n1 [Example 135]
100 to 500 nM	NC(=O)c1cccc(N2CCCN(C3CCN(Cc4ccccc4Cl)CC3)CC2)n1 [Example 136, 6-(4-{1-[(2-Chlorophenyl)methyl]piperidin-4-yl}-1,4-diazpan-1-yl)pyridine-2-carboxamide]
20 to 100 nM	CCNC(=O)c1cccc(N2CCCN(C3CCN(Cc4ccccc4Cl)CC3)CC2)n1 [Example 137, 6-(4-{1-[(2-Chlorophenyl)methyl]piperidin-4-yl}-1,4-diazepan-1-yl)-N-ethylpyridine-2-carboxamide]
500 to 1000 nM	CCCCNC(=O)c1cccc(N2CCCN(C3CCN(Cc4ccccc4Cl)CC3)CC2)n1 [Example 138, N-Butyl-6-(4-{1-[(2-chlorophenyl)methyl]piperidin-4-yl}-1,4-diazepan-1-yl)pyridine-2-carboxamide]
100 to 500 nM	O=C(NCCCn1ccnc1)c1cccc(N2CCCN(C3CCN(Cc4ccccc4Cl)CC3)CC2)n1 [Example 139, 6-(4-{1-[(2-Chlorophenyl)methyl]piperidin-4-yl}-1,4-diazepan-1-yl)-N-[3-(1H-imidazol-1-yl)propyl]pyridine-2-carboxamide]
500 to 1000 nM	CC(C)N1CCC(N2CCCN(c3cccc(-c4nc5ccccc5n4C)n3)CC2)CC1 [Example 140, 1-Methyl-2-(6-{4-[1-(propan-2-yl)piperidin-4-yl]-1,4-diazepan-1-yl}pyridin-2-yl)-1H-1,3-benzodiazole]
